Values belong to the compound of their own block, whether it stands above or below them. Calls of active or inactive are those of the source.
Tests used:
Aminopeptidase N = target: T1, Aminopeptidase N (Plasmodium falciparum FcB1/Columbia, UniProt O96935); test: malaria alanyl aminopeptidase activity blockers – biochemical, fluorogenic H-Leu-NHMec substrate, 1536-well (AID 1445); set-up: species or system Plasmodium falciparum 3D7, 3D7
T1 sequence (O96935 whole entry): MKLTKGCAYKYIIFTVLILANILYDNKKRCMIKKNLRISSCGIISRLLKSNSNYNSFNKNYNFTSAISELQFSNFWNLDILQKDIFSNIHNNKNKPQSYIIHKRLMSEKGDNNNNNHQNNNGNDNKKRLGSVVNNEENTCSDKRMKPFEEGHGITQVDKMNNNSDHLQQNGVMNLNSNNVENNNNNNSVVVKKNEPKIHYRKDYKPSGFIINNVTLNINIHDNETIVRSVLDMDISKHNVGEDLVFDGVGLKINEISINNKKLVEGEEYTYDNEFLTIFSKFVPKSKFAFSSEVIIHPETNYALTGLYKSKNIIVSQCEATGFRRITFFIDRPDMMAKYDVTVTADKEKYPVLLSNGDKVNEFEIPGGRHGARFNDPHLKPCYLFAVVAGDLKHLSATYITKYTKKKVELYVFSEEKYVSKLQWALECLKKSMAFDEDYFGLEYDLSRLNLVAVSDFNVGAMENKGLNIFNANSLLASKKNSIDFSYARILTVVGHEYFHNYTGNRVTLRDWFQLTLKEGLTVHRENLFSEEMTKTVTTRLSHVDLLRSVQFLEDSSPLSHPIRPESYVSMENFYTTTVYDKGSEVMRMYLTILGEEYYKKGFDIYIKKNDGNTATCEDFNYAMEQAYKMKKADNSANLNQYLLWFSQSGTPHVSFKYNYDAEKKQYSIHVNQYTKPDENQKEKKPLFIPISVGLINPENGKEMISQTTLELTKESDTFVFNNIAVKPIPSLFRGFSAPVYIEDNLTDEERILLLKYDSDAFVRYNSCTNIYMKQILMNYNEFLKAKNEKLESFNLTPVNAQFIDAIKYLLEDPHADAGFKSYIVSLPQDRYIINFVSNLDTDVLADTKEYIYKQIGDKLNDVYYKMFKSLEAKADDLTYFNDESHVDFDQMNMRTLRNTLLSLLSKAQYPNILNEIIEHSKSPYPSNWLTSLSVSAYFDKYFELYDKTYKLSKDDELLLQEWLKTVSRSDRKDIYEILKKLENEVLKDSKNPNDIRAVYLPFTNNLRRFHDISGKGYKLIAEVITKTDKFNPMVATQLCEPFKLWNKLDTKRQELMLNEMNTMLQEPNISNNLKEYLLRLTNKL

[1] = target: Voltage-dependent T-type calcium channel subunit alpha-1H (Homo sapiens, UniProt O95180); format: functional;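 note: channel activity triggered by adding a high calcium stimulation buffer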
Sequence of Voltage-dependent T-type calcium channel subunit alpha-1H (O95180 whole entry): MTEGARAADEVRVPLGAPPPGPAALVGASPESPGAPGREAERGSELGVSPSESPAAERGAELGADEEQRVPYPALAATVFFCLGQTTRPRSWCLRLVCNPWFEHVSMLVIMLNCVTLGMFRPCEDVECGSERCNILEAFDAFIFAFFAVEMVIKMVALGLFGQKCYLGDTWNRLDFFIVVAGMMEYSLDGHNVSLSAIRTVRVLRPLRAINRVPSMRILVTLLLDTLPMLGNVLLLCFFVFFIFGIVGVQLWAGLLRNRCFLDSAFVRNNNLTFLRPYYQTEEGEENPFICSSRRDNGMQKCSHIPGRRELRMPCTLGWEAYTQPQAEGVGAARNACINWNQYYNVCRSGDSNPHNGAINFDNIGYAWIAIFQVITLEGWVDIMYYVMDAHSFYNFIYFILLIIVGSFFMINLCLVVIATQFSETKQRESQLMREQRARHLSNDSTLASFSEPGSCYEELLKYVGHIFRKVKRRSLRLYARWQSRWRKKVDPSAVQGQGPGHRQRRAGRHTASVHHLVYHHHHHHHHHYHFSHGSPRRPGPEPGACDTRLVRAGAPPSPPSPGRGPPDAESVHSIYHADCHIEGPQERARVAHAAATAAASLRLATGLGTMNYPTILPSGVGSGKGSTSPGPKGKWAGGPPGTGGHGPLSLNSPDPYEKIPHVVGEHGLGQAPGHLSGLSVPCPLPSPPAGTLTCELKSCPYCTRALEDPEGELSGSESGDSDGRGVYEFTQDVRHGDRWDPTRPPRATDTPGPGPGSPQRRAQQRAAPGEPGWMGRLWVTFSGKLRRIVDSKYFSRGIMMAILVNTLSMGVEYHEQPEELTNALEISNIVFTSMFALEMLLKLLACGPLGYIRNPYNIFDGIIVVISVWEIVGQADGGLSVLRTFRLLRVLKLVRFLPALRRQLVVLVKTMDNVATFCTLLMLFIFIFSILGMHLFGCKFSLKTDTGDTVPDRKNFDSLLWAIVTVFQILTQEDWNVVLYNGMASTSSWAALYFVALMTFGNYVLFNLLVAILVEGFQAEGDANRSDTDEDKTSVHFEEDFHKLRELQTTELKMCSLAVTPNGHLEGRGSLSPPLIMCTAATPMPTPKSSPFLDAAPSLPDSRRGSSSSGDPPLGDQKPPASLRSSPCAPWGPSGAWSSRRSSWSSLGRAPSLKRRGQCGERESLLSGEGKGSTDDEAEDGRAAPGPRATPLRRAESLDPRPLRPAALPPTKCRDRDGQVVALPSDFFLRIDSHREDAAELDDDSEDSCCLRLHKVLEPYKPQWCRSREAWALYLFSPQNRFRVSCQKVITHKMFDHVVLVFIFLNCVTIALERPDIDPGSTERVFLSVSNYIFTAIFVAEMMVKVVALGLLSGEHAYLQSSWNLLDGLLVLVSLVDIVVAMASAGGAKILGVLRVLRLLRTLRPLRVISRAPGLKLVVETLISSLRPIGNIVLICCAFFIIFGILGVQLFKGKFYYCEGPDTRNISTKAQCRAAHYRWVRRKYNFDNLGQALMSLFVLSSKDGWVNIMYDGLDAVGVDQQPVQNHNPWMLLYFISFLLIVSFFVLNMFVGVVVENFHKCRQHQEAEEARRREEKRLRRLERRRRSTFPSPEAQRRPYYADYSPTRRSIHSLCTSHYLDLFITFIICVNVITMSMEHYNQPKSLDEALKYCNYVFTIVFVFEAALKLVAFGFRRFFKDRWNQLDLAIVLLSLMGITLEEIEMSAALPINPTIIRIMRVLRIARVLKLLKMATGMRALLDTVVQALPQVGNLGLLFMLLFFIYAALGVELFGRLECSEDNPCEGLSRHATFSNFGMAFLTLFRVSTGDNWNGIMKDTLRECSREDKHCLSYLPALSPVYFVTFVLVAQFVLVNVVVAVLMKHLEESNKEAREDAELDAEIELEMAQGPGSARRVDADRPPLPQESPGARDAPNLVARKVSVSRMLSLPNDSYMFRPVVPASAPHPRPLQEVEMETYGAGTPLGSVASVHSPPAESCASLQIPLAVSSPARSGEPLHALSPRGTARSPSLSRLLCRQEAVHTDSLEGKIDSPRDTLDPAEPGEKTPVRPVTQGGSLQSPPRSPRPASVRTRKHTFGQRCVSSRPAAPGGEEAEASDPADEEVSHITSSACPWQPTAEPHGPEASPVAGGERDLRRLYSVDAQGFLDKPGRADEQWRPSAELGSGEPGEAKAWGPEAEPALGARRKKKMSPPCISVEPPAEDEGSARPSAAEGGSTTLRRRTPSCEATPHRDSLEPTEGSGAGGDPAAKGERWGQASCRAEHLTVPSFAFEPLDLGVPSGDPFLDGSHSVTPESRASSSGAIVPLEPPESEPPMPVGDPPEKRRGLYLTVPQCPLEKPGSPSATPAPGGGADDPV

[2] = target: Photoreceptor-specific nuclear receptor (Homo sapiens, UniProt Q9Y5X4); format: functional;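 note: potency for compounds that break the NR2E3 corepressor complex and count as activators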
Sequence of Photoreceptor-specific nuclear receptor (Q9Y5X4 whole entry, the tested form may be a part): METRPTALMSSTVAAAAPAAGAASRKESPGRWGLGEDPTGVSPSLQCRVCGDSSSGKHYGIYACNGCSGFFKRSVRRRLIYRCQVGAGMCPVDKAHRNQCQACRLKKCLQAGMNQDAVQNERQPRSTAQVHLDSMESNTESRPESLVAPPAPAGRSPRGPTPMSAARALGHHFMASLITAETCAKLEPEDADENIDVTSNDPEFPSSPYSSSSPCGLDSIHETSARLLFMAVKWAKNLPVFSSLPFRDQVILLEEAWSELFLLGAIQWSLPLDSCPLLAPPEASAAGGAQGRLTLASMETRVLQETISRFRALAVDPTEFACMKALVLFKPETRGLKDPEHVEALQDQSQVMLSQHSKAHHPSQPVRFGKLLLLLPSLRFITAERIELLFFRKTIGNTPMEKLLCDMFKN

[3] = target: T2, RNA-binding protein pos-1 (Caenorhabditis elegans, UniProt G5EF15); test: disruptors of C. elegans POS-1 RNA interaction – biochemical, fluorescence polarization, dose response (AID 1964);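 note: purified POS-1 fused to maltose binding protein made in E. coli; potency of compounds blocking POS-1 binding to fluorescent RNA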
T2 sequence (G5EF15 whole entry): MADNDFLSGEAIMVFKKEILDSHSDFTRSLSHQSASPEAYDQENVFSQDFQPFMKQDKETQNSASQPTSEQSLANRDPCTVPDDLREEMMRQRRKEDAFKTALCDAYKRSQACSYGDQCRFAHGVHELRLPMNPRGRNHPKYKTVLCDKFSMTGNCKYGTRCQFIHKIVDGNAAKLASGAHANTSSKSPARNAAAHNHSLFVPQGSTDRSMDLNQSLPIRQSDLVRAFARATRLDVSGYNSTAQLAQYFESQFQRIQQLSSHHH

[4] = target: T3, Zinc finger protein mex-5 (Caenorhabditis elegans, UniProt Q9XUB2); test: potency of MEX-5 RNA-binding blockers – biochemical, C. elegans, fluorescence polarization, dose response (AID 1960)
T3 sequence (Q9XUB2 whole entry): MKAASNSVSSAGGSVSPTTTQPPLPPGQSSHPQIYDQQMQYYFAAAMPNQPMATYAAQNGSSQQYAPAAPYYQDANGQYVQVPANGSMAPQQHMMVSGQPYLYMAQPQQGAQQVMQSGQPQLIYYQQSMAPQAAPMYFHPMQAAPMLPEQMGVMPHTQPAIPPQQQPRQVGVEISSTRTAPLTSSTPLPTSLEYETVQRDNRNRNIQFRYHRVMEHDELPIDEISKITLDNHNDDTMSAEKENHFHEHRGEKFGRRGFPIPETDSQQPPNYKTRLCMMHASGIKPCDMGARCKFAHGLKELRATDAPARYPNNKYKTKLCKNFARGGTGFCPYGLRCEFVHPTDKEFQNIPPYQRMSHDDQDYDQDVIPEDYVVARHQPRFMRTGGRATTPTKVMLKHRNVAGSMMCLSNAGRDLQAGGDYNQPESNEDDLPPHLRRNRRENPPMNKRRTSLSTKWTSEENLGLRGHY

[5] = target: Peroxisome proliferator-activated receptor gamma/Nuclear receptor corepressor 2 (Homo sapiens, UniProt P37231+Q9Y618); format: functional
Genome polyprotein = Genome polyprotein (dengue virus type 2, UniProt P29990); test: flavivirus cap methylation enzyme inhibition – biochemical, confirmation dose response, primary screen (AID 588689); format: functional
Sequence of Genome polyprotein (P29990 2492-3391 limits assumed): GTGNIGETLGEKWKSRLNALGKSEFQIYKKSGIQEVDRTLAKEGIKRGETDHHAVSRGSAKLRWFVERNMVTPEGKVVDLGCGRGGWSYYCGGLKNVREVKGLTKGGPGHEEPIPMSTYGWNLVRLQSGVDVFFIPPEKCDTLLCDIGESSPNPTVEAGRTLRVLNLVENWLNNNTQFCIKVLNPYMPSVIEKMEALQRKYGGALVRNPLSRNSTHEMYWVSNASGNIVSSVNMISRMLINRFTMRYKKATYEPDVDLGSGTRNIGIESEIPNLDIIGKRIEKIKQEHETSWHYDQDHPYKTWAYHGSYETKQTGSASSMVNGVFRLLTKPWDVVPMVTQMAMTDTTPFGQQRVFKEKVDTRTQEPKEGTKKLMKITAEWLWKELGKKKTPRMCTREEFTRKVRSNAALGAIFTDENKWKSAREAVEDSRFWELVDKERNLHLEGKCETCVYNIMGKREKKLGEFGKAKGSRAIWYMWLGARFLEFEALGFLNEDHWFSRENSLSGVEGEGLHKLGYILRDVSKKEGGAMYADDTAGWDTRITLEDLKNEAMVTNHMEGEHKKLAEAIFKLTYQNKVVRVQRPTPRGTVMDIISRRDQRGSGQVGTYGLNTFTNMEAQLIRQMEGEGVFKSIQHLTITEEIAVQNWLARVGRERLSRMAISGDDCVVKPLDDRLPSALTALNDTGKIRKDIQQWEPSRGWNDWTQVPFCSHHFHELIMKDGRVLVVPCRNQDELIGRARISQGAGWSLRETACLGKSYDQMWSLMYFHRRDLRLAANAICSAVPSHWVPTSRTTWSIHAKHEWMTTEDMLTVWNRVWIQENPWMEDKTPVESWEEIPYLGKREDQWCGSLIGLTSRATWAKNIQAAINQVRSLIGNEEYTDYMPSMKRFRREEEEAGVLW

SUMO-activating enzyme [6] = target: T4, SUMO-activating enzyme (Homo sapiens, UniProt Q9UBT2); test: blockers of UBC9-mediated SUMO conjugation – biochemical, AlphaScreen, SUMOylation inhibitor project, confirmation (AID 2018); format: functional
T4 sequence (Q9UBE0 whole entry): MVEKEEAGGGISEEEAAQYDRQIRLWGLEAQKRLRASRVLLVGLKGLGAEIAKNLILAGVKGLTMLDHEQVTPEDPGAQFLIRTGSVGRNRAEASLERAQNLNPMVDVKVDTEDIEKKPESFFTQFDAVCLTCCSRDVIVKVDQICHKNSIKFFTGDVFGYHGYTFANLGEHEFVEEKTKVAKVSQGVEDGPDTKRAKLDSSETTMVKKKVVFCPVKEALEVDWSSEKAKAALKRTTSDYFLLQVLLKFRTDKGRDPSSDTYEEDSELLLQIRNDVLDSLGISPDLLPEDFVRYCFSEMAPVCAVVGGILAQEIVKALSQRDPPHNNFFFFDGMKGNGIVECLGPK
T4 sequence (Q9UBT2 whole entry): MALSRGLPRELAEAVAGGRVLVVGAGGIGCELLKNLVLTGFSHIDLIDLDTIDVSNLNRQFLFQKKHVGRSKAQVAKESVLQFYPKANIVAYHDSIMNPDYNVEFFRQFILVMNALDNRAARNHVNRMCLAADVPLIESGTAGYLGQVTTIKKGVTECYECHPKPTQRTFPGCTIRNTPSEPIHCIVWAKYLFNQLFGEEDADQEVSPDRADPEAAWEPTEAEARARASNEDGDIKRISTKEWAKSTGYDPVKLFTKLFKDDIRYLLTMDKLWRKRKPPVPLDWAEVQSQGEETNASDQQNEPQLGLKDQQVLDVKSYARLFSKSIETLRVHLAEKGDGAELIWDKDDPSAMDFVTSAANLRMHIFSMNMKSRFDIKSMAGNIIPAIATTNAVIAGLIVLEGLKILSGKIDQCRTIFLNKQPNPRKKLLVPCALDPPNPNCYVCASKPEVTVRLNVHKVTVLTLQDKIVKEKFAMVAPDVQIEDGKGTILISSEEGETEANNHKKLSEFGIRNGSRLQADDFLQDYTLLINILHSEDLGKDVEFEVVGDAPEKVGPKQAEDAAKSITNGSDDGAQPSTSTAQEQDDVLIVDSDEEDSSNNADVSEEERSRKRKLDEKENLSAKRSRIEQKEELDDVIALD

SUMO-activating enzyme [7] = target: T4, SUMO-activating enzyme; test: blockers of SAE1/SAE2–UBC9 SUMO transfer – biochemical, HTRF, uHTS, primary screen (AID 2006); format: protein-complex assay
[8] = target: T5, Calpain-2 catalytic subunit (Sus scrofa, UniProt P43367); test: m-calpain protease blockers, concentration series – biochemical, fluorogenic peptide substrate, dose response (AID 1420); format: functional
T5 sequence (P43367 whole entry): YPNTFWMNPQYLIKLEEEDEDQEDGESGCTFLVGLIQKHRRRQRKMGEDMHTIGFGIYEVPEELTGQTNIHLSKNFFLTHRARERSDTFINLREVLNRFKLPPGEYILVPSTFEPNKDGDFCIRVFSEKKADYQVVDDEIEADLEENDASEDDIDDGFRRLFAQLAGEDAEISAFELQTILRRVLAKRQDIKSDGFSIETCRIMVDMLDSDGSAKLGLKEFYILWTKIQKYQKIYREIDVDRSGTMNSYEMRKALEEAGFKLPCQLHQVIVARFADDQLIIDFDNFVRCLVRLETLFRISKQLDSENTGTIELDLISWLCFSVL

cells [9] = format: functional, cell-based
[10] = target: T6, Trace amine-associated receptor 1 (Homo sapiens, UniProt Q96RJ0); test: Fluorescence-based cell-based high throughput dose response assay to identify agonists of the human trace amine associated receptor 1 (TAAR1).; format: functional
T6 sequence (Q96RJ0 whole entry): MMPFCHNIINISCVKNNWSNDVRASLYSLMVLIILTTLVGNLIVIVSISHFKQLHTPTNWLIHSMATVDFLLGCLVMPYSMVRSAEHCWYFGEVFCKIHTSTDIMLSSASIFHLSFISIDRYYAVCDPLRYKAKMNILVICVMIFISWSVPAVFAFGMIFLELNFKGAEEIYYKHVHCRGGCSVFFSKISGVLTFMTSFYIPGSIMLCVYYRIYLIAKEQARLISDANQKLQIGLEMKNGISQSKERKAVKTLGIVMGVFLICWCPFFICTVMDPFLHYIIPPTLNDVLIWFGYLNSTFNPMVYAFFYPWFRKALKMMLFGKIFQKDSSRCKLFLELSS

[11] = target: T6, Trace amine-associated receptor 1; test: Counterscreen for agonists of the human trace amine associated receptor 1 (hTAAR1): Fluorescence-based cell-based high throughput dose response assay to identify hTAAR1 agonist that also desensitize TAAR1 receptor response.; format: functional
cells [12] = format: functional, cell-based; remark: listed apart in the source
[13] = target: Melanin-concentrating hormone receptor 1 (Homo sapiens, UniProt Q99705); test: Late-stage fluorescence-based counterscreen for antagonists of the G-protein coupled receptor 7 (GPR7): cell-based dose response assay to identify antagonists of the melanin-concentrating hormone receptor 1 (MCHR1). [Related pubchem assays (depositor defined):AID1861, AID1880, AID1952, AID2148, AID2251, AID2257, AID485339]; format: functional;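 note: stimulated with 30 nM MCH peptide agonist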
Sequence of Melanin-concentrating hormone receptor 1 (Q99705 whole entry): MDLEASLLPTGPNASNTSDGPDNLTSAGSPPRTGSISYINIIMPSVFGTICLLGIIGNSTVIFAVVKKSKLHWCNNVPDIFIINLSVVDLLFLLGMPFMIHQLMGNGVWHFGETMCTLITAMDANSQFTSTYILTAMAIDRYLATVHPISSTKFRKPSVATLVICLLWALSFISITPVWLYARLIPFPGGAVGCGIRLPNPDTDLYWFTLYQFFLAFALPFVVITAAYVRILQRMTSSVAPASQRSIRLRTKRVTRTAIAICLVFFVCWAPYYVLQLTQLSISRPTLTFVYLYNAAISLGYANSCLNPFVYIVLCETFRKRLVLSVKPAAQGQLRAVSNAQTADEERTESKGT

[14] = target: T7, Short transient receptor potential channel 4 (Mus musculus, UniProt Q9QUQ5); test: block of DAMGO-driven TRPC4 calcium entry – cell-based, HEK293 TRPC4/mu-opioid, Fluo-4 calcium, dose response (AID 434942); format: functional;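 note: potency of inhibitors blocking the TRPC4 calcium response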
T7 sequence (Q9QUQ5 whole entry): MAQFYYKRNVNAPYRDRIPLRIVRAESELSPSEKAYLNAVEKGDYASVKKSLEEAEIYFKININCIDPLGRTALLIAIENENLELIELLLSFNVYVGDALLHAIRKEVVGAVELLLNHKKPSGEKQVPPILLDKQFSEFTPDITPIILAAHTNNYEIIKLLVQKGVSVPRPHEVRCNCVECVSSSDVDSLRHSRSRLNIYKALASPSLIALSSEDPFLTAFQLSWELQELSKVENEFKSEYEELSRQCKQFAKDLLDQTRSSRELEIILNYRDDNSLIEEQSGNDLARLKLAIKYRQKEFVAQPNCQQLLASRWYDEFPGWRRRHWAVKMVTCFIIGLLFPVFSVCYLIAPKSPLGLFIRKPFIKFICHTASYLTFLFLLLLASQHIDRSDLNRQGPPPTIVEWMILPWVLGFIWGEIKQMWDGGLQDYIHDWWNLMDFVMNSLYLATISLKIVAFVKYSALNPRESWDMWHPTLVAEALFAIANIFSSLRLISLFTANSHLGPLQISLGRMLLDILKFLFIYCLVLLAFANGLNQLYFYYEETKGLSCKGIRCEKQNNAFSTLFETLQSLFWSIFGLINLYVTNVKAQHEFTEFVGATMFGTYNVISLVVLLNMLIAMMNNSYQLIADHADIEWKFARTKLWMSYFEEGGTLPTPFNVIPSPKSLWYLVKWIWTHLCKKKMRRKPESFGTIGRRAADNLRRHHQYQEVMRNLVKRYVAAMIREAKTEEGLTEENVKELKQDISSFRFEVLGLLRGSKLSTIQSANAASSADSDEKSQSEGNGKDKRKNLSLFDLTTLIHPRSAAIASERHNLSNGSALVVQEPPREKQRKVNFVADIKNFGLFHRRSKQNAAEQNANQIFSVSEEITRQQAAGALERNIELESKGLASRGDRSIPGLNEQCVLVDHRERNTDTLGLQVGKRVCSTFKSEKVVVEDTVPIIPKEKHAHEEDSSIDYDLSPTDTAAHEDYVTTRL

Leucine aminopeptidase = target: T8, Leucine aminopeptidase (Plasmodium falciparum 3D7, UniProt Q8IL11); test: P. falciparum M17LAP inhibitors, primary screen, biochemical, fluorogenic H-Leu-NHMec substrate, 1536-well (AID 1619); format: functional
T8 sequence (Q8IL11 whole entry): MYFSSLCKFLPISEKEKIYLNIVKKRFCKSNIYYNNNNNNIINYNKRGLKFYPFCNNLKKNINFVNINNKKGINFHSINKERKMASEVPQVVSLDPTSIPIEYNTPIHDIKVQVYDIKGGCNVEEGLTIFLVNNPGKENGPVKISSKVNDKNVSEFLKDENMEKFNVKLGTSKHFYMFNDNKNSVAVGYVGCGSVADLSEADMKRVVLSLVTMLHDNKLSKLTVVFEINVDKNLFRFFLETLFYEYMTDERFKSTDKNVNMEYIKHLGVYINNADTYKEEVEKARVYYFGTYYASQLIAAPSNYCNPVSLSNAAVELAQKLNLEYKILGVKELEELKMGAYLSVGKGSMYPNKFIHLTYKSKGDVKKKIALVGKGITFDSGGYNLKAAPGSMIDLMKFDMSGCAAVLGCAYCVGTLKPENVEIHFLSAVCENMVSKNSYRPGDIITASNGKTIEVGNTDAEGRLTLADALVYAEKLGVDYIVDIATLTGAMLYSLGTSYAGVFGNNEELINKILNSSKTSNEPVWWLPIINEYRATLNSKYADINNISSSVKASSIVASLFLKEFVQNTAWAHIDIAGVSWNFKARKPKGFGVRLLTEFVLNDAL

SMILES: O=C(Nc1ccc2c(c1)OCO2)C1CCN(S(=O)(=O)c2ccc3c(c2)OCCO3)CC1
IC50 (Aminopeptidase N): 45.7 µM (active)

SMILES: COC(=O)c1c(Cl)c2n3ccccc3c(C)c(-c3ccccc3)c-2c1C(=O)OC
IC50 [2]: 0.303 µM (active)
EC50 [3]: 47.5 µM (active)
EC50 [4]: 25.8 µM (active)
IC50 [5]: 0.0555 µM (active)
IC50 (Genome polyprotein): 74.5 µM (active)

SMILES: O=c1c(C(c2ccccc2)c2c(O)sc3ccccc3c2=O)c(O)sc2ccccc12
IC50 (SUMO-activating enzyme [6]): 4.11 µM (active)
IC50 (SUMO-activating enzyme [7]): 11.3 µM (active)
IC50 [8]: 4.29 µM (not active)

SMILES: CC1NC(=O)NC1CCCCCC(=O)NCCc1ccccc1 (stereo not given)
IC50 [2]: 1.06 µM (active)
IC50 [5]: 3.01 µM (active)
IC50 (cells [9]): > 29.9 µM (inactive)
EC50 [10]: 1.93 µM (active)
IC50 [11]: 6.36 µM (active)
EC50 (cells [12]): > 29.9 µM (inactive)

SMILES: CCc1cnn(-c2ccc(C(C)C)cc2)c(=O)c1Oc1ccc(OC)cc1
IC50 [13]: 12.8 µM (inactive)

SMILES: COc1ccc(Oc2c(C3CC3)cnn(-c3ccc(C)cc3)c2=O)cc1
IC50 [13]: 5.4 µM (active)

Continued, values first:

EC50 [1]: 1.98 µM (active)
SMILES: O=C(Cc1ccccc1F)Nc1nc(-c2cccs2)cs1

IC50 (Aminopeptidase N): 39 µM (active)
SMILES: COc1ccc(NC(=O)[C@@H](NC(=O)c2ccccc2)C(C)C)cc1S(=O)(=O)N1CCCCC1

EC50 [1]: 3.89 µM (active)
SMILES: CC(C)N(Cc1nc(-c2ccc(Cl)cc2)no1)C(=O)CCCN1C(=O)c2ccccc2C1=O

EC50 [1]: 4.08 µM (active)
SMILES: COc1ccccc1N1CCN(CC(=O)Nc2ccc(Cl)c(C(F)(F)F)c2)CC1

EC50 [14]: 5.96 µM (active)
SMILES: Cc1ccc(N2CCN(C(=O)c3ccccc3F)CC2)c(C)c1

EC50 [14]: 3.76 µM (active)
SMILES: O=C(Nc1ccccc1Oc1cccnc1)C1CCCN(Cc2cccc(Cl)c2)C1 (stereo not given)

IC50 (Leucine aminopeptidase): 28.3 µM (active)
IC50 (Aminopeptidase N): 61.6 µM (active)
SMILES: O=C(CSc1n[nH]c2c3ccccc3nc-2n1)Nc1ccc(S(=O)(=O)Nc2ncccn2)cc1
